Experimental data taken from patent publication US20260077055A1, “COMPOSITIONS OF POLYPLEXES AND SAPONINS” (SAPREME TECHNOLOGIES B.V., priority 2022, published 2026).

Test system: EGFR-A2058 cells
Test: Cell viability (MTS) after polyplex transfection of A2058 cells
Type: cell-based
Conditions: co-administered with PAMAM G5(PEG-N3)6.2 npSaporin polyplexes; 73 nM Cetuximab-SO1861 or 4 μM SO1861-EMCH; 72 h
Method: Spectrophotometry: Concentrations were determined using either a Thermo Nanodrop 2000 spectrometer or Perkin Elmer Lambda 365 Spectrophotometer. DLS measurements: DLS measurements were performed on a Malvern Nano ZS (Malvern Instruments, U.K.), operating at 633 nm with a 173° scattering angle, at 25 or 37° C. DLS mean diameters were obtained from the intensity particle size distribution provided by Malvern Zetasizer Software. DLS histograms were obtained from the intensity particle size distributions. […] Infrared Spectroscopy: FT-IR spectra were recorded on a Bruker Vertex 70v, equipped with a RockSolid interferometer, after preparing the samples (1-2 mg) as KBr pellets. […] NMR Spectroscopy: 1H NMR spectra were recorded on a 11.7 T Bruker DRX-500 spectrometer. […] Experiments were recorded acquiring 64-512 scans, with a pre-scan delay (d1) of 12 s, and an acquisition time (aq) of 4 s at 300 K. 13C NMR spectrum was recorder on a 9.39 T Varian Innova 400 spectrometer. […] After treatment, the cells were incubated for 72 hr at 37° C. before the cell viability was determined by a MTS-assay performed according to the manufacturer's instruction (CellTiter 96® AQueous One Solution Cell Proliferation Assay, Promega). […]

CC(=O)OC1C(C)OC(OC2C(C)OC(OC(=O)[C@]34CCC(C)(C)CC3C3=CCC5[C@@]6(C)CC[C@H](OC7OC(C(=O)O)C(O)C(OC8OCC(O)C(O)C8O)C7OC7OC(CO)C(O)C(O)C7O)[C@@](C)(/C=N/NC(=O)CCCCCN7C(=O)C=CC7=O)C6CC[C@@]5(C)[C@]3(C)C[C@H]4O)C(OC3OC(C)C(OC4OCC(O)C(OC5OC(CO)C(O)C(O)C5O)C4O)C(O)C3O)C2O)C(O)C1OC1OCC(O)C(O)C1O (stereo partly shown) [SO1861-EMCH]
cytoplasmic delivery of npSaporin / cell killing: strongly enhanced the cytoplasmic delivery of npSaporin
